Where two headings read alike, the source gives them in different places.
Columns and labels:
[1] = Toxicity XTT in CEM-SS cells (drug resistant strain assay); type: cell-based; conditions: human, CEM-SS cells, read-out: TC50 (the source's name)
Method: (§1) Cells were prepared as described above. Virus Preparation—The wild type NL4-3 and drug resistant A17 viruses were obtained from the NIH AIDS Research and Reference Reagent Program and stock virus pools were produced in CEM-SS cells. Amino acid substitutes of L100I, Y181C and P23L were introduced by site-directed mutagenesis into pN L4-3 and stock virus pools were produced in CEM-SS cells. A pretitered aliquot of virus was removed from the freezer (−80° C.) and allowed to thaw slowly to room temperature in a biological safety cabinet. Virus was re-suspended and diluted into tissue culture medium such that the amount of virus added to each well in a volume of 50 μL was the amount determined to yield 85 to 95% cell killing at 6 days post-infection.
(§2) Plate Format—Each plate contains cell control wells (cells only), virus control wells (cells plus virus), drug toxicity wells (cells plus drug only), drug colorimetric control wells (drug only) as well as experimental wells (drug plus cells plus virus). Samples were tested in triplicate with eleven half-log dilutions per compound. Efficacy and Toxicity XTT—Following incubation at 37° C. in a 5% CO2 incubator, the test plates were stained with the tetrazolium dye XTT (2,3-bis(2-methoxy-4-nitro-5-sulfophenyl)-5-[(phenylamino)carbonyl]-2H-tetrazolium hydroxide). XTT-tetrazolium was metabolized by the mitochondrial enzymes of metabolically active cells to a soluble formazan product, allowing rapid quantitative analysis of the inhibition of HIV induced cell killing by anti-HIV test substances. XTT solution was prepared daily as a stock of 1 mg/mL in RPMI1640. Phenazine methosulfate (PMS) solution was prepared at 0.15 mg/mL in PBS and stored in the dark at −20° C. XTTIPMS stock was prepared immediately before use by adding 40 μL of PMS per ml of XTT solution. Fifty microliters of XTT/PMS was added to each well of the plate and the plate was re-incubated for 4 hours at 37° C. Plates were sealed with adhesive plate sealers and shaken gently or inverted several times to mix the soluble formazan product and the plate was read spectrophotometrically at 450/650 nm with a Molecular Devices Vmax plate reader.
(§3) Data Analysis—Raw data was collected from the Softmax Pro 4.6 software and imported into a Excel XLFit4 spreadsheet for analysis by four parameter curve fit calculations. Both antiviral activity and toxicity are calculated.

[2] = system: NL4-3P236L; assay: Anti-HIV cytoprotection assay, drug resistant NL4-3 P236L; type: cell-based; conditions: HIV-1 strain NL4-3P236L; for EC50: CEM-SS cells
Method: as §1, §2, §3

[3] = system: NL4-3Y181C; assay: Anti-HIV cytoprotection assay, drug resistant NL4-3 Y181C; type: cell-based; conditions: HIV-1 strain NL4-3Y181C; for EC50: CEM-SS cells
Method: as §1, §2, §3

[4] = system: NL4-3; assay: Anti-HIV cytoprotection assay, wild type NL4-3; type: cell-based, HIV-1; conditions: for TI: HIV-1 strain NL4-3
Method: as §1, with “cabinet.” for “cabinet. Virus was re-suspended and diluted into tissue culture medium such that the amount of virus added to each well in a volume of 50 μL was the amount determined to yield 85 to 95% cell killing at 6 days post-infection.”
as §2, §3

[5] = system: A17K103N/Y181C; assay: Anti-HIV cytoprotection assay, drug resistant A17; type: cell-based; conditions: HIV-1 strain A17K103N/Y181C, CEM-SS cells
Method: as §1, with “cabinet.” for “cabinet. Virus was re-suspended and diluted into tissue culture medium such that the amount of virus added to each well in a volume of 50 μL was the amount determined to yield 85 to 95% cell killing at 6 days post-infection.”
as §2, §3

[6] = system: NL4-3L100I; assay: Anti-HIV cytoprotection assay, drug resistant NL4-3 L100I; type: cell-based; conditions: HIV-1 strain NL4-3L100I; for EC50: CEM-SS cells
Method: as §1, §2, §3

[7] = system: CEM-SS cells; assay: Toxicity XTT in CEM-SS cells (drug resistant strain assay); type: cell-based; conditions: read-out: TC50 (the source's name)
Method: as §1, §2, §3

[8] = system: Caco-2 monolayers; assay: in vitro; type: in vitro ADME; conditions: for Recovery (%) A→B / Recovery (%) B→A / Average Papp, A→B / Average Papp, B→A: 2 hours; for Average Papp, A→B / Average Papp, B→A: pH 7.4
Summary of the method: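 Permeability across Caco-2 monolayers in 12-well Transwell inserts (1.13 cm² area), run in duplicate. Calculation uses receiver and donor volumes, nominal dosing concentration, final receiver and donor concentrations, and the mean of nominal and measured 120 min donor concentrations.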

[9] = system: CEM-SS cells; assay: Toxicity XTT in CEM-SS cells (cytoprotection assay); type: cell-based; conditions: XTT; read-out: CEM-SS TC50
Summary of the method: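 CEM-SS cells in exponential growth (>95% viable) were plated with compound alone, as eleven half-log dilutions in triplicate, at 37 °C and 5% CO2. Viability was measured by XTT/PMS metabolism over 4 h, read at 450/650 nm. Toxicity was derived by four-parameter curve fitting.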

[10] = run with HIV-1 strain A17K103N/Y181C
[11] = run with HIV-1 strain NL4-3L100I
[12] = run with HIV-1 strain NL4-3P236L
[13] = run with HIV-1 strain NL4-3Y181C
[14] = Human immunodeficiency virus 1, CEM-SS
[15] = Human immunodeficiency virus 1, NL43, CEM-SS

Molecule: COCCOCCOCCOCCOc1ccc2[nH]c(C(=O)N3CCN(c4ncccc4NC(C)C)CC3)cc2c1 [mPEG4-O-Delavirdine, 5-O-mPEG4-Delavirdine]
- CC50 [1, 10]: > 5000 nM
- CC50 ([1]; run with HIV-1 strain NL4-3): > 5000 nM
- CC50 [1, 11]: > 5000 nM
- CC50 [1, 12]: > 5000 nM
- CC50 [1, 13]: > 5000 nM
- EC50 [2, 14]: > 5000 nM
- EC50 [3, 14]: > 5000 nM
- TI [4]: >5.8
- EC50 [4, 15]: 870 nM
- EC50 [5, 14]: > 5000 nM
- TI [6]: >5.3
- EC50 [6, 14]: 950 nM

Molecule: COCCNc1ccc2[nH]c(C(=O)N3CCN(c4ncccc4NC(C)C)CC3)cc2c1 [5-mPEG1-NH-Delavirdine, 5-mPEG-NH-Delavirdine]
- CC50 [1, 10]: > 1000 nM
- CC50 ([1]; run with HIV-1 strain NL4-3): > 1000 nM
- CC50 [1, 11]: > 1000 nM
- CC50 [1, 12]: > 1000 nM
- CC50 [1, 13]: > 1000 nM
- EC50 [2, 14]: > 1000 nM
- TI [3]: >1.2
- EC50 [3, 14]: 820 nM
- TI [4]: >50.0
- EC50 [4, 15]: 20 nM
- EC50 [5, 14]: > 1000 nM
- TI [6]: >1.8
- EC50 [6, 14]: 560 nM

Molecule: COCCOCCOCCOc1ccc2[nH]c(C(=O)N3CCN(c4ncccc4NC(C)C)CC3)cc2c1 [mPEG3-O-Delavirdine, 5-O-mPEG3-Delavirdine]
- CC50 [1, 10]: > 5000 nM
- CC50 ([1]; run with HIV-1 strain NL4-3): > 5000 nM
- CC50 [1, 11]: > 5000 nM
- CC50 [1, 12]: > 5000 nM
- CC50 [1, 13]: > 5000 nM
- EC50 [2, 14]: > 5000 nM
- EC50 [3, 14]: > 5000 nM
- TI [4]: >83.3
- EC50 [4, 15]: 60 nM
- EC50 [5, 14]: > 5000 nM
- TI [6]: >167.0
- EC50 [6, 14]: 30 nM

Molecule: 5-O-mPEG9-Delavirdine [mPEG9-O-Delavirdine]
- CC50 [7, 10]: > 5000 nM
- CC50 ([7]; run with HIV-1 strain NL4-3): > 5000 nM
- CC50 [7, 11]: > 5000 nM
- CC50 [7, 12]: > 5000 nM
- CC50 [7, 13]: > 5000 nM
- EC50 ([2]; read-out: EC50): > 5000 nM
- Efflux Ratio (B→A/A→B) ([8]; Test 1): 12
- Recovery (%) A→B ([8]; Test 1, 10 μM): 66%
- Recovery (%) B→A ([8]; Test 1, 10 μM): 72%
- Average Papp, A→B ([8]; Test 1, 10 μM): 2.22 ×10⁻⁶ cm/s
- Average Papp, B→A ([8]; Test 1, 10 μM): 27.7 ×10⁻⁶ cm/s
- Efflux Ratio (B→A/A→B) ([8]; Test 2): 7.1
- Recovery (%) A→B ([8]; Test 2, 10 μM): 93%
- Recovery (%) B→A ([8]; Test 2, 10 μM): 94%
- Average Papp, A→B ([8]; Test 2, 10 μM): 5.27 ×10⁻⁶ cm/s
- Average Papp, B→A ([8]; Test 2, 10 μM): 37.3 ×10⁻⁶ cm/s
- EC50 ([3]; read-out: EC50): > 5000 nM
- TI [4]: >5.6
- EC50 ([4]; HIV-1 strain NL4-3, CEM-SS cells, read-out: EC50): 890 nM
- CC50 [9]: 40700 nM
- EC50 ([5]; read-out: EC50): > 5000 nM
- TI [6]: >5.3
- EC50 ([6]; read-out: EC50): 940 nM

Molecule: COCCOCCNc1ccc2[nH]c(C(=O)N3CCN(c4ncccc4NC(C)C)CC3)cc2c1 [5-mPEG2-NH-Delavirdine]
- CC50 [1, 10]: > 1000 nM
- CC50 ([1]; run with HIV-1 strain NL4-3): > 1000 nM
- CC50 [1, 11]: > 1000 nM
- CC50 [1, 12]: > 1000 nM
- CC50 [1, 13]: > 1000 nM
- TI [2]: >4.4
- EC50 [2, 14]: 230 nM
- EC50 [3, 14]: > 1000 nM
- TI [4]: >12.5
- EC50 [4, 15]: 80 nM
- EC50 [5, 14]: > 1000 nM
- TI [6]: >1.4
- EC50 [6, 14]: 710 nM

From patent publication US9421204B2, “Oligomer modified diaromatic substituted compounds” (priority 2010, dated 2016)
